Values of other authors, collected in US10421941B2, “Process for improving the solubility of cell culture media” (Merck Patent GmbH, priority 2014, dated 2019).

Details: water / aqueous solvents

| solubility (in words) | SMILES |
| --- | --- |
| poorly soluble | N[C@@H](CSSC[C@H](N)C(=O)O)C(=O)O [cystine] |
| moderate | CC[C@H](C)[C@H](N)C(=O)O [isoleucine] |
| moderate | CC(C)C[C@H](N)C(=O)O [leucine] |
| moderate | CC(C)[C@H](N)C(=O)O [valine] |
